Assay results from patent US6890920B2, “Quaternary ammonium compounds” (Pharmacia & Upjohn Company, priority 1992, dated 2005).
Read-outs that look alike come from different tables or passages of the source.

Columns and labels:
muscarinic receptor M1 = biological target: T1, muscarinic receptor M1 (Homo sapiens, UniProt P11229); assay: Muscarinic receptor subtype M1 binding assay, radioligand displacement
T1 construct: expressed in transfected cells
T1 sequence (P11229 1-460): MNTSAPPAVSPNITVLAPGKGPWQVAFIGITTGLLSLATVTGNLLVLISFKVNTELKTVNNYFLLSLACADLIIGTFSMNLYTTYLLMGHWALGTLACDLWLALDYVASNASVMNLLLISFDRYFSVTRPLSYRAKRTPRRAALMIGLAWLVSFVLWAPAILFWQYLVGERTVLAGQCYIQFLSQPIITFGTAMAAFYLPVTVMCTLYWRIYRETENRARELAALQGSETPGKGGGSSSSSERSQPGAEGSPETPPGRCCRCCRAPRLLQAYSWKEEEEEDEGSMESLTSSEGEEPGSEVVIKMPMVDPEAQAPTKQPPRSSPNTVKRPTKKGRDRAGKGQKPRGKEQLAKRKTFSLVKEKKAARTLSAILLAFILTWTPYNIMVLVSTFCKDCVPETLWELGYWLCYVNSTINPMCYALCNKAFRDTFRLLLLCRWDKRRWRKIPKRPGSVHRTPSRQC
Method: (§1) Muscarinic receptor subtype M1-M5 binding assays were carried out. Briefly, [3]H-methylscopolamine was allowed to bind to membranes from various recombinant mammalian cell lines, each with an over-expression of a particular receptor subtype.
(§2) Muscarinic receptor subtype M1-M5 binding assays were performed.

muscarinic receptor M2 = biological target: T2, muscarinic receptor M2 (Homo sapiens, UniProt P08172); assay: Muscarinic receptor subtype M2 binding assay, radioligand displacement
T2 construct: expressed in transfected cells
T2 sequence (P08172 1-466): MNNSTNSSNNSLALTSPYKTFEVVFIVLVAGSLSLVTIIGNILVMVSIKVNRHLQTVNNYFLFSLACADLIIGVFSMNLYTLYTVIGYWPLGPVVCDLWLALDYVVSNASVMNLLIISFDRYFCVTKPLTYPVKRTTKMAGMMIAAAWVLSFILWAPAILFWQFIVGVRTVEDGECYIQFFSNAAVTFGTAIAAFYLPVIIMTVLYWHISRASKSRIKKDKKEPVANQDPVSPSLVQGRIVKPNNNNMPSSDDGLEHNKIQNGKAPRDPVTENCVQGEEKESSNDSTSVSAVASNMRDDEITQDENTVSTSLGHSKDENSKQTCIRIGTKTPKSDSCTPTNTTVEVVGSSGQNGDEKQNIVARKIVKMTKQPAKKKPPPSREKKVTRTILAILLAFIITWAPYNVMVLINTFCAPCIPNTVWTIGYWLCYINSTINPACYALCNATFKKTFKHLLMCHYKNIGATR
Method: as §1, §2

muscarinic receptor M3 = biological target: T3, muscarinic receptor M3 (Homo sapiens, UniProt P20309); assay: Muscarinic receptor subtype M3 binding assay, radioligand displacement; conditions: Ki values, receptor subtype M3
T3 construct: expressed in transfected cells
Method: as §1, §2

muscarinic receptor M4 = biological target: T4, muscarinic receptor M4 (Homo sapiens, UniProt P08173); assay: Muscarinic receptor subtype M4 binding assay, radioligand displacement
T4 construct: expressed in transfected cells
T4 sequence (P08173 1-479): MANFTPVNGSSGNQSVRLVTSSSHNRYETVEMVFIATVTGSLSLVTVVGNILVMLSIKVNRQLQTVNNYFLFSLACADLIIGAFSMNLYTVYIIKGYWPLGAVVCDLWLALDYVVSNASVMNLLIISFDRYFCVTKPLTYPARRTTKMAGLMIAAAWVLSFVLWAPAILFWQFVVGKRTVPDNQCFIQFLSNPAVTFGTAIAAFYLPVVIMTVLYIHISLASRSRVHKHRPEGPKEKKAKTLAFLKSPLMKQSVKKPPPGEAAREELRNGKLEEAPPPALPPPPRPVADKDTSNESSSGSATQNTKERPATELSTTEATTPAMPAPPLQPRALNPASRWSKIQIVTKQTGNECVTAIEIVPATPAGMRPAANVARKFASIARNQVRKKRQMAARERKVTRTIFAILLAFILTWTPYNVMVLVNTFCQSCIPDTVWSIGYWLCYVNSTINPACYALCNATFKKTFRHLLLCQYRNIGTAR
Method: as §1, §2

muscarinic receptor M5 = biological target: T5, muscarinic receptor M5 (Homo sapiens, UniProt P08912); assay: Muscarinic receptor subtype M5 binding assay, radioligand displacement; conditions: Ki values, receptor subtype M5, [3]H-methylscopolamine displacement, membranes from recombinant mammalian cell lines
T5 construct: expressed in transfected cells
T5 sequence (P08912 1-532): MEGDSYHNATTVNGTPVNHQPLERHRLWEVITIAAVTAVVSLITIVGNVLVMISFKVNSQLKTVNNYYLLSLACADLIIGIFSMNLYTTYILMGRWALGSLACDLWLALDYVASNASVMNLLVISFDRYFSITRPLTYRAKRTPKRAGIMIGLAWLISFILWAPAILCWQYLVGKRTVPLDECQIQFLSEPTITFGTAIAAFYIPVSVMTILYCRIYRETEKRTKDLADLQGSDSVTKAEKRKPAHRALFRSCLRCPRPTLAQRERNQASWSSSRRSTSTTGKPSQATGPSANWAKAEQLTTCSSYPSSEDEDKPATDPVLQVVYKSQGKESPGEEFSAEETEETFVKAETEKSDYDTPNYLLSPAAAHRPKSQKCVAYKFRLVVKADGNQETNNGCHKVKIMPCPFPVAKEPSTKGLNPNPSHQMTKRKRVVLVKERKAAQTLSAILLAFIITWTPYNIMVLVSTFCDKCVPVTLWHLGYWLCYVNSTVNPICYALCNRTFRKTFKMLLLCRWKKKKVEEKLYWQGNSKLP
Method: as §1, §2

[1] = Pharmacokinetics of inhaled quaternary ammonium salts, plasma levels; assay type: in vivo, Balb/c mice
Method: Blood samples were taken from the mice in example II via cardiac puncture under isoflurane anesthesia at 2.5 minutes, 10 minutes, 30 minutes, 2 hours, 4 hours, 8 hours, or 12 hours after aerosol drug treatment.
The samples were collected in tubes containing EDTA and centrifuged at 12000×g for four minutes. Plasma was removed and stored at −70° C. until assay.
Plasma samples were extracted via a liquid/liquid extraction technique. […] Chromatographically, the analyte and the internal standard were resolved on a Phenomenex Phenyl-Hexyl column using an isocratic elution. The limit of quantitation was 24 pg/ml.

[2] = test system: methacholine-induced bronchoconstriction in Balb/c mice; assay: Bronchodilatory effect of inhaled compounds, Example II (10 min to 48 h)
Method: Female BALB/c mice, weight range 19-22 g, were obtained from Charles River Laboratories (Kingston, N.C.). They received food and water ad libitum.
Compounds for aerosol administration were prepared in sterile Dulbecco's Phosphate Buffered Saline.
Mice were placed in a carousel-style, nose only, exposure chamber and allowed to inhale aerosols for five minutes, using an ICN SPAG-2 nebulizer.
Bronchoconstriction was induced in mice by administration of an 80 mg/ml methacholine (MC) aerosol into the plethysmograph chambers for 5 minutes. […] The average enhanced pause (lung resistance) was determined. In order to determine the baseline, saline aerosol (without methacholine) was also separately administered to the mice.

[3] = Balb/c, mouse, plasma, inhaled, inhalation of 0.072 mg/ml, read-out: Plasma concentration ± std dev
[4] = Balb/c, mouse, plasma, inhaled, inhalation of 0.144 mg/ml, read-out: Plasma concentration ± std dev
[5] = Balb/c, mouse, plasma, inhaled, inhalation of 1.44 mg/ml, read-out: Plasma concentration ± std dev

T3 sequence (P20309 whole entry): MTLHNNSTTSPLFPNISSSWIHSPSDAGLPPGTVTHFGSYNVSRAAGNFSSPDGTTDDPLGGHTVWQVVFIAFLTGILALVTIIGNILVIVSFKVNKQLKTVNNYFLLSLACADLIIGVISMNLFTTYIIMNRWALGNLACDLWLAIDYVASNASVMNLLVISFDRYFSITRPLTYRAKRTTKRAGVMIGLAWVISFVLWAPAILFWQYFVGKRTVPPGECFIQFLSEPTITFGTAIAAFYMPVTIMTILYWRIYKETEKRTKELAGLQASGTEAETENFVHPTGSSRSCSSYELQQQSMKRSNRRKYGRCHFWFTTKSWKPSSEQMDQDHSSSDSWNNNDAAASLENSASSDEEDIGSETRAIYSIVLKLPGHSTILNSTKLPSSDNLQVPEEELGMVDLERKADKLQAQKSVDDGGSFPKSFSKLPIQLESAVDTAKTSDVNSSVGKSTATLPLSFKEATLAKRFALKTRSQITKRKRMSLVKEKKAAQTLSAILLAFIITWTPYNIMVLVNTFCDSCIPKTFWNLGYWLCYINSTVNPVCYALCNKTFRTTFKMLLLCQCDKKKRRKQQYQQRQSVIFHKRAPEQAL

## Cc1ccc(O)c([C@H](CC[N+](C)(C(C)C)C(C)C)c2ccccc2)c1.[I-] [Example 2]
Muscarinic receptor M1
  Ki: 330 pM
Muscarinic receptor M2
  Ki: 450 pM
Muscarinic receptor M3
  Ki: 200 pM
Muscarinic receptor M4
  Ki: 390 pM
Muscarinic receptor M5
  Ki: 250 pM
[1]; [3]
  concentration at 2.5 min: 0.136 ± 0.038 ng/mL
  concentration at 10 min: 0.09 ± 0.001 ng/mL
  concentration at 30 min: 0.081 ± 0.008 ng/mL
  concentration at 2 h: 0.041 ± 0.006 ng/mL
  concentration at 4 h: 0.014 ± 0.001 ng/mL
[1]; [4]
  concentration at 2.5 min: 0.264 ± 0.021 ng/mL
  concentration at 10 min: 0.162 ± 0.011 ng/mL
  concentration at 30 min: 0.112 ± 0.01 ng/mL
  concentration at 2 h: 0.055 ± 0.007 ng/mL
  concentration at 4 h: 0.04 ± 0.003 ng/mL
  concentration at 8 h: 0.012 ± 0.001 ng/mL
[1]; [5]
  concentration at 2.5 min: 2.68 ± 0.389 ng/mL
  concentration at 10 min: 1.4 ± 0.163 ng/mL
  concentration at 30 min: 1.12 ± 0.042 ng/mL
  concentration at 2 h: 0.245 ± 0.003 ng/mL
  concentration at 4 h: 0.157 ± 0.002 ng/mL
  concentration at 8 h: 0.08 ± 0.002 ng/mL
[1]; Balb/c, mouse, plasma, inhaled, inhalation of 1.44 mg/ml, 12 h, read-out: Plasma concentration ± std dev
  concentration at 12 h: 0.042 ± 0.002 ng/mL
[1]; after aerosol inhalation of 0.072-1.44 mg/ml
  systemic (plasma) exposure: very low
[2]; inhalation of aerosol from 0.072 mg/ml solution, FIG. 3
  prevention of methacholine-induced bronchoconstriction, time following administration: 8 h
[2]; inhalation of aerosol from 0.144 mg/ml solution, FIG. 2
  prevention of methacholine-induced bronchoconstriction, time following administration: 24 h
[2]; inhalation of aerosol from 1.44 mg/ml solution, FIG. 1
  complete block of methacholine-induced bronchoconstriction, time following administration: 36 h
